pIC50: −log10 of the molar value.
Columns and labels:
[1] = target: Tb-labeled inactive PDGFRβ (Homo sapiens (Human), UniProt P09619); experiment: biochemical; format: binding; settings: read-out: PDGFR Lantha IC50
[2] = target: His6-TEV-PDGFRβ (557-1016) (Homo sapiens (Human), UniProt P09619); experiment: PDGFRβ HTRF Assay; format: biochemical; settings: 800 μM ATP, 0.5 μM TK-substrate biotin peptide, 30 min pre-incubation, 3 hours reaction; read-out: PDGFR HTRF IC50
VEGFR2, unphosphorylated = VEGFR2, unphosphorylated (Homo sapiens (Human), UniProt P35968); experiment: VEGFR ADP GLO assay; format: biochemical; settings: 5 nM VEGFR2, 1.2 mM ATP, 1 mg/mL Srctide, 180 min
Sequence of VEGFR2, unphosphorylated (P35968 whole entry, looked up): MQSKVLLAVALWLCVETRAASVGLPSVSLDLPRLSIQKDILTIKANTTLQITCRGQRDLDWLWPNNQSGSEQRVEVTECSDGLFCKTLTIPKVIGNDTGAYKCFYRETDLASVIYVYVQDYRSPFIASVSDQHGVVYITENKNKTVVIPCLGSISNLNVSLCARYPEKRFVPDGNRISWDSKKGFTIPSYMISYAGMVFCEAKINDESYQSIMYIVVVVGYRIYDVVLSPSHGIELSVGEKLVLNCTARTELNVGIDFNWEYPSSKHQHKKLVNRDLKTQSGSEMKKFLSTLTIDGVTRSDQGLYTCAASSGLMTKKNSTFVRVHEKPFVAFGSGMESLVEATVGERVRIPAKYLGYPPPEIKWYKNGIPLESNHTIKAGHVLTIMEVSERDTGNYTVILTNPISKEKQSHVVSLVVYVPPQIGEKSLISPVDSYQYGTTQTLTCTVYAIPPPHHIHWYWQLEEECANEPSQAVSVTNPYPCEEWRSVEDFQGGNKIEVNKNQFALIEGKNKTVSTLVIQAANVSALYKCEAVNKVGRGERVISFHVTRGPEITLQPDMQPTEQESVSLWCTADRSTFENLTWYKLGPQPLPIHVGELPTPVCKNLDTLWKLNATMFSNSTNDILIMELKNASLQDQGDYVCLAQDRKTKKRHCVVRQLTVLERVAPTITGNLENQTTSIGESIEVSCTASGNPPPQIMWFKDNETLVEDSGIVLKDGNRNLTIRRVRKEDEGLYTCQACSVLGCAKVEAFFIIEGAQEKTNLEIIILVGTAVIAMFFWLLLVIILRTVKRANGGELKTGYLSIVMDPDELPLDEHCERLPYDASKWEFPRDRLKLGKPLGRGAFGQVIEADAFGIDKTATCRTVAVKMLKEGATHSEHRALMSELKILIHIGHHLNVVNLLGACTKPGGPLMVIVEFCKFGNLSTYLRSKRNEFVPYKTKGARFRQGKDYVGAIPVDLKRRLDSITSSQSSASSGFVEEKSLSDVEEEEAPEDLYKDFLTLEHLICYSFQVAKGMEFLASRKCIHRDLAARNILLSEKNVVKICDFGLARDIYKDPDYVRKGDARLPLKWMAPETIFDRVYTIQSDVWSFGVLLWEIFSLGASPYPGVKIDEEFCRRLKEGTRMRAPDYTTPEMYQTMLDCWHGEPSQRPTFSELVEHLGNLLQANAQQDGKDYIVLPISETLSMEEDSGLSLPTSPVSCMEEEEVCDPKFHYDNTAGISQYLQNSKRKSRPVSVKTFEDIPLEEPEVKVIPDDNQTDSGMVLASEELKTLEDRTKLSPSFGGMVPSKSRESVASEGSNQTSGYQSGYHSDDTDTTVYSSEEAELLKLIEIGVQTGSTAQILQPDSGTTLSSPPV
Procedure, shortened: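 Luminescent ADP detection after a 180-min room-temperature reaction of srctide plus ATP (2 mg/mL and 2.4 mM in 2× mix) in pH 7.5 HEPES buffer with DTT, Pluronic and ovalbumin. Compounds, 11 points from 10 µM, first pre-incubated 30 min with enzyme (2× mix 10 nM). IC50s fitted after scaling between DMSO and 1 µM TAK-593 controls.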

PDGFRβ = PDGFRβ (Rattus norvegicus (Rat), UniProt Q05030); experiment: PDGFRβ Cellular Assay (PDGFRb P-Y751 HTRF, PDGF-BB stimulated A10 cells); format: cell-based; settings: A10 cells, 3 hours compound, 15 ng/mL PDGFbb for 10 minutes; read-out: PDGFR Cellular IC50
Sequence of PDGFRβ (Q05030 whole entry, looked up): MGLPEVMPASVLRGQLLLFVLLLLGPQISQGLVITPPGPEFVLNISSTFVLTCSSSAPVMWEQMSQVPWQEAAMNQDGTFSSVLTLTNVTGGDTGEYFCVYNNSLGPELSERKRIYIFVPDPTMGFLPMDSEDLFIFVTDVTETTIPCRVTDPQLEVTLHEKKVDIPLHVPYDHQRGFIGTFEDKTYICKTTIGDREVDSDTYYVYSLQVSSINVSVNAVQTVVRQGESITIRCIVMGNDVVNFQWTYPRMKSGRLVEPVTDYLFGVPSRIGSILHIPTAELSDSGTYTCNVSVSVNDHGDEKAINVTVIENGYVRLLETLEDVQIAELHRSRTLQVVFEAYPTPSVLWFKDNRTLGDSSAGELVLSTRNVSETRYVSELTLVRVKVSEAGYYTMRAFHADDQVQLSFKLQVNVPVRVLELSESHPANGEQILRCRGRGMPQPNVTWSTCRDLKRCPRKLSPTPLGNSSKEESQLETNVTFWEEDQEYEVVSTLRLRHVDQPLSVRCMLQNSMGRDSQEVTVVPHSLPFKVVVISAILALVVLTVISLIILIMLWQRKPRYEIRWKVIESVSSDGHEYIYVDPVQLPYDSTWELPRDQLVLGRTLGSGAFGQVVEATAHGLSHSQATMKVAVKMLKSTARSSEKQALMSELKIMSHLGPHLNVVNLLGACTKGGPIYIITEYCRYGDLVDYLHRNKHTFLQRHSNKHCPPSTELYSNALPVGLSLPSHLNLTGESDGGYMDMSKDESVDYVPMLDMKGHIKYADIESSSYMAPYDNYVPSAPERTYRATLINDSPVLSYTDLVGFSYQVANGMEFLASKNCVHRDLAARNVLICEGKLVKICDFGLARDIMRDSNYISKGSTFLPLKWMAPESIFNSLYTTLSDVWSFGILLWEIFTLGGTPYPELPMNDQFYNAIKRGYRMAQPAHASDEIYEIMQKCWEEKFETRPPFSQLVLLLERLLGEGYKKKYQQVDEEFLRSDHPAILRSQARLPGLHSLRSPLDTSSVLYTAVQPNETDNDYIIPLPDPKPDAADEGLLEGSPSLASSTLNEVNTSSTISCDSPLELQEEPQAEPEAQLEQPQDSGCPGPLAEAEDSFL
Procedure, shortened: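 Rat A10 cells plated overnight were treated with compound for 3 h, stimulated with rat PDGF-BB (working stock 100 ng/mL in 10% FBS medium) for 10 min, then lysed.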

Sequence of Tb-labeled inactive PDGFRβ (P09619 whole entry, looked up): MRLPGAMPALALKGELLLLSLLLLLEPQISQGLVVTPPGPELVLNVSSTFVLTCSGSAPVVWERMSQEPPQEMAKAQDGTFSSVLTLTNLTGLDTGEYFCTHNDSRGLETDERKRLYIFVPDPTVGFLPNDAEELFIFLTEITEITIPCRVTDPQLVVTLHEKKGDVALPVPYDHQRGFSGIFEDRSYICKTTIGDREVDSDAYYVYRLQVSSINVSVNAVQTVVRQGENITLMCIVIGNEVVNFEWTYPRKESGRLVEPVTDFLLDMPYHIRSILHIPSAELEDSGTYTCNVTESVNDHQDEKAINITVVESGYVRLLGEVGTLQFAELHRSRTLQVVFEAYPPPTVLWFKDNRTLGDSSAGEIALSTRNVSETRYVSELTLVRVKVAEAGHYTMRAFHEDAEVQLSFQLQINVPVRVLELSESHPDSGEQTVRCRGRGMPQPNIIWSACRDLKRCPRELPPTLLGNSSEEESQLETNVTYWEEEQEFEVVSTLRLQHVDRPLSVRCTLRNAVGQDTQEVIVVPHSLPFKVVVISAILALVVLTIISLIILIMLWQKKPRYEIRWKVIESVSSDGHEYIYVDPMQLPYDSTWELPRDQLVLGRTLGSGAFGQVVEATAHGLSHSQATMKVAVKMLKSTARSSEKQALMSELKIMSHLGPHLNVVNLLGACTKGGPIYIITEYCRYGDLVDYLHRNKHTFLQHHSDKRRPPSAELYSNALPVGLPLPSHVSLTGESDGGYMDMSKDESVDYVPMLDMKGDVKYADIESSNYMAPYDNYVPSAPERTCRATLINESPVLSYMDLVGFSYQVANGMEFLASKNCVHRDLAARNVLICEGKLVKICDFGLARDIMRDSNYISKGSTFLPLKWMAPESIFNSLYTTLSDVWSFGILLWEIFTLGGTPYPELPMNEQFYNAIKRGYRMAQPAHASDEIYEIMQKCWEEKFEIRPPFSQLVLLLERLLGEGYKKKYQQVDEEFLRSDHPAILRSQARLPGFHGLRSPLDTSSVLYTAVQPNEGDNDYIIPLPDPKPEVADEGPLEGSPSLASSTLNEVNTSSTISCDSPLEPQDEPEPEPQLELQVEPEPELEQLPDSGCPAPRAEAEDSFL
Sequence of His6-TEV-PDGFRβ (557-1016) (P09619 whole entry, looked up): as above

SMILES	pIC50 [1]	pIC50 [2]	pIC50 (VEGFR2, unphosphorylated)	pIC50 (PDGFRβ)
Cc1ncc(C(=O)NCCN2CCCC2(C)C)cc1Nc1nn(C)c2nc(Nc3ccnc(N)c3)ncc12 [Example 41, 5-((6-((2-aminopyridin-4-yl)amino)-1-methyl-1H-pyrazolo[3,4-d]pyrimidin-3-yl)amino)-N-(2-(2,2-dimethylpyrrolidin-1-yl)ethyl)-6-methylnicotinamide]	8.49	9.44	< 5.12	6.94
COC(=O)C1(c2cccc(Nc3ncc4c(Nc5cc(C(=O)NCCN6CCCC6(C)C)cnc5C)nn(C)c4n3)c2)CC1 [Example 37, methyl 1-(3-((3-((5-((2-(2,2-dimethylpyrrolidin-1-yl)ethyl)carbamoyl)-2-methylpyridin-3-yl)amino)-1-methyl-1H-pyrazolo[3,4-d]pyrimidin-6-yl)amino)phenyl)cyclopropanecarboxylate]	8.19	9.10	5.25	7.19
COC1CCN(CCNC(=O)c2cc(C)c(Nc3nn(C)c4nc(Nc5cnn(C)c5)ncc34)s2)CC1 [Example 49, N-(2-(4-methoxypiperidin-1-yl)ethyl)-4-methyl-5-((1-methyl-6-((1-methyl-1H-pyrazol-4-yl)amino)-1H-pyrazolo[3,4-d]pyrimidin-3-yl)amino)thiophene-2-carboxamide]	7.40	8.93	< 5.12	6.98
COCCN(CCNC(=O)c1cnc(C)c(Nc2nn(C)c3nc(Nc4cnn(C)c4)ncc23)c1)C1CCCC1 [Example 95, N-(2-(cyclopentyl(2-methoxyethyl)amino)ethyl)-6-methyl-5-((1-methyl-6-((1-methyl-1H-pyrazol-4-yl)amino)-1H-pyrazolo[3,4-d]pyrimidin-3-yl)amino)nicotinamide]	8.47	9.28	< 5.12	8.00
COC1CN(CC(=O)Nc2cnc(C)c(Nc3nn(C)c4nc(Nc5cnn(C)c5)ncc34)c2)C1 [Example 137, 2-(3-methoxyazetidin-1-yl)-N-(6-methyl-5-((1-methyl-6-((1-methyl-1H-pyrazol-4-yl)amino)-1H-pyrazolo[3,4-d]pyrimidin-3-yl)amino)pyridin-3-yl)acetamide]	8.35	9.31	< 5.12	7.68
Cn1cc(Nc2ncc3c(Nc4cc(C(=O)NCCN5CCC6(CC6)C5)ccc4F)nn(C)c3n2)cn1 [Example 122, N-(2-(5-azaspiro[2.4]heptan-5-yl)ethyl)-4-fluoro-3-((1-methyl-6-((1-methyl-1H-pyrazol-4-yl)amino)-1H-pyrazolo[3,4-d]pyrimidin-3-yl)amino)benzamide]	8.92	9.82	< 5.12	8.34
Cc1ncc(C(=O)NCCN2C3CCC2CC3)cc1Nc1nn(C)c2nc(Nc3cnn(C)c3)ncc12 [Example 153, N-(2-(7-azabicyclo[2.2.1]heptan-7-yl)ethyl)-6-methyl-5-((1-methyl-6-((1-methyl-1H-pyrazol-4-yl)amino)-1H-pyrazolo[3,4-d]pyrimidin-3-yl)amino)nicotinamide]	8.89	9.59	< 5.12	6.95
CC(=O)Nc1cc(Nc2ncc3c(Nc4cc(C(=O)NCCN5CCCC5(C)C)cnc4C)nn(C)c3n2)ccn1 [Example 100, 5-((6-((2-acetamidopyridin-4-yl)amino)-1-methyl-1H-pyrazolo[3,4-d]pyrimidin-3-yl)amino)-N-(2-(2,2-dimethylpyrrolidin-1-yl)ethyl)-6-methylnicotinamide]	8.55	9.41	5.27	7.03
Cn1cc(Nc2ncc3c(Nc4cc(C(=O)NCCN5CCCC5(C)C)ccc4F)nn(C)c3n2)cn1 [Example 121, N-(2-(2,2-dimethylpyrrolidin-1-yl)ethyl)-4-fluoro-3-((1-methyl-6-((1-methyl-1H-pyrazol-4-yl)amino)-1H-pyrazolo[3,4-d]pyrimidin-3-yl)amino)benzamide]	8.89	9.70	< 5.12	8.44
Cc1ncc(C(=O)NCCN2C[C@H](C)O[C@@H](C)C2)cc1Nc1nn(C)c2nc(Nc3cnn(C)c3)ncc12 (relative stereo) [Example 92, N-(2-(trans-2,6-dimethylmorpholino)ethyl)-6-methyl-5-((1-methyl-6-((1-methyl-1H-pyrazol-4-yl)amino)-1H-pyrazolo[3,4-d]pyrimidin-3-yl)amino)nicotinamide]	8.37	9.16	5.17	7.64
Cc1ncc(NC(=O)CN2CCCC2(C)C)cc1Nc1nn(C)c2nc(Nc3cnn(C)c3)ncc12 [Example 70, 2-(2,2-dimethylpyrrolidin-1-yl)-N-(6-methyl-5-((1-methyl-6-((1-methyl-1H-pyrazol-4-yl)amino)-1H-pyrazolo[3,4-d]pyrimidin-3-yl)amino)pyridin-3-yl)acetamide]	8.74	9.70	5.21	9.05
Cc1ncc(C(=O)NCCN2CC(C)CC(C)C2)cc1Nc1nn(C)c2nc(Nc3cnn(C)c3)ncc12 (stereo not shown) [Example 87, N-(2-(3,5-dimethylpiperidin-1-yl)ethyl)-6-methyl-5-((1-methyl-6-((1-methyl-1H-pyrazol-4-yl)amino)-1H-pyrazolo[3,4-d]pyrimidin-3-yl)amino)nicotinamide]	8.64	9.54	< 5.12	7.94
Cc1ncc(C(=O)NCCN2C[C@@H](C)O[C@@H](C)C2)cc1Nc1nn(C)c2nc(Nc3cnn(C)c3)ncc12 [Example 91, N-(2-(cis-2,6-dimethylmorpholino)ethyl)-6-methyl-5-((1-methyl-6-((1-methyl-1H-pyrazol-4-yl)amino)-1H-pyrazolo[3,4-d]pyrimidin-3-yl)amino)nicotinamide]	8.38	9.34	< 5.12	7.35
Cc1ncc(C(=O)NCCN2CCCC2(C)C)cc1Nc1nn(C)c2nc(Nc3cnn(C)c3C)ncc12 [Example 156, 5-((6-((1,5-dimethyl-1H-pyrazol-4-yl)amino)-1-methyl-1H-pyrazolo[3,4-d]pyrimidin-3-yl)amino)-N-(2-(2,2-dimethylpyrrolidin-1-yl)ethyl)-6-methylnicotinamide]	7.69	8.67	< 5.12	7.71
Cn1cc(Nc2ncc3c(Nc4cc(C(=O)NCCN5CCC(F)(F)CC5)ccc4F)nn(C)c3n2)cn1 [Example 63, N-(2-(4,4-difluoropiperidin-1-yl)ethyl)-4-fluoro-3-((1-methyl-6-((1-methyl-1H-pyrazol-4-yl)amino)-1H-pyrazolo[3,4-d]pyrimidin-3-yl)amino)benzamide]	9.05	9.70	6.24	8.80
Cc1ccc(C(=O)NCCN2CCC(F)(F)CC2)cc1Nc1nn(C)c2nc(Nc3cnn(C)c3)ncc12 [Example 118, N-(2-(4,4-difluoropiperidin-1-yl)ethyl)-4-methyl-3-((1-methyl-6-((1-methyl-1H-pyrazol-4-yl)amino)-1H-pyrazolo[3,4-d]pyrimidin-3-yl)amino)benzamide]	8.74	9.54	7.12	8.27

Source: patent US20240360134A1, “PYRAZOLOPYRIMIDINES AND THEIR USES AS PDGFR INHIBITORS” (priority 2021, published 2024)
